TGI data for 16 compounds are collected here from PubChem BioAssay (NCI).

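A five-concentration, 48-hour dose response in 96-well plates underlies each endpoint, interpolated linearly between surrounding concentrations. The concentration for full growth arrest is given as TGI.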 A value given as a limit tells only on which side of the number the result lay.

Holding throughout (experiment): growth of human tumour cells (NCI), 48 h
For test [1], the system named is BT-549 breast.
The test system of test [2] is HOP-62 NSCLC.
The test system of test [3] is HS 578T breast.
Test [4] concerns HT29 colon.
The test system of test [5] is MDA-MB-231 breast.
The test system of test [6] is NCI-H23 lung.
For test [7], the system named is NCI-H460 lung.
The subject of test [8] is SW-620 colon.
Test [9] relates to UACC-257 melanoma.
The test system of test [10] is OVCAR-4 ovarian.

Consider `COc1ccc2c(c1)/C(=C\c1c(Cl)nc3sc(C)cn13)C(=O)N2`, for which the TGI stood at 20.5 µM in [1]; 19.4 µM in test [2]; 9.6 µM in test [3]; 12.7 µM in test [4]; 17.7 µM in [5]; 18.9 µM in test [6]. For the same compound, the TGI amounted to 12.3 µM in test [7], 11.7 µM in test [8] and 21 µM in test [9].
With `OCCc1ccsc1-c1sc(-c2cc(CCO)c(-c3sccc3CCO)s2)cc1CCO`, the TGI was found to be 20.3 µM in test [1]; 27.6 µM in test [2]; 48.5 µM in [5]; 41 µM in test [6]; 32.5 µM in [7]; 34 µM in [10]. Also, the TGI in [8] is more than 100 µM; in test [9] it was 34.4 µM.
In the case of `CCOC(=O)c1ccc(NCC#CCN2CCOCC2)cc1`, the TGI in test [1], in test [2], in test [3], in [4], in [5] and in [6] was more than 100 µM in each case. The TGI in test [10] and in test [8] was more than 100 µM in each case.
Regarding `COc1ccc(-c2nc(SCC(=O)N/N=C/c3ccc(N(C)C)cc3)[nH]c2-c2ccc(OC)cc2)cc1`, the TGI in test [1], in [2], in [4], in test [5], in [6] and in test [7] was more than 100 µM in each case. For the same compound, the TGI in [10], in test [8] and in test [9] was more than 100 µM in each case.
Consider `COc1ccc2c(c1)OCC1Cc3ccccc3OC21` (stereo unspecified), for which the TGI in test [1], in test [2], in [4], in test [5], in [6] and in test [8] was more than 100 µM in each case. This compound also returned a TGI in test [9] of more than 100 µM.
For the compound `CS(=O)(=O)OCC(CCl)(CCl)CCl`, the TGI in test [3], in [4], in [5], in [6], in test [7] and in test [10] was more than 100 µM in each case. The TGI in test [8] and in test [9] was more than 100 µM each time.
For the compound `CCOC(=O)c1cn2c(nc1=O)N[C@H]1CCCC[C@@H]12`, the TGI in test [1], in test [3], in test [4], in test [5], in [6] and in [7] was more than 100 µM throughout. Besides, the TGI in [10], in test [8] and in test [9] was more than 100 µM in each case.
For the compound `Cc1ccc(C(=C2Sc3ccccc3S2)C(=C2Sc3ccccc3S2)c2ccc(C)s2)s1`, the TGI in test [1], in [2], in test [3], in test [4], in test [5] and in test [6] was more than 100 µM in each case. Moreover, the TGI in test [10], in [8] and in test [9] was more than 100 µM throughout.
Regarding `CSC(=S)N(C)C`, the TGI in test [1], in test [2], in [3], in test [4], in test [5] and in test [6] was more than 100 µM each time. The TGI in [7], in test [8] and in test [9] was more than 100 µM each time.
Regarding `COc1ccc(C2=N/C(=C\c3ccccc3)C(=O)O2)cc1`, the TGI in test [2], in test [3], in [4], in [7], in test [10] and in test [8] was more than 100 µM each time. For the same compound, the TGI in [9] was more than 100 µM.
Take `O=C(CC(C(=O)c1ccsc1)c1ccc2c(c1)OCO2)c1ccccc1` (stereo unspecified): the TGI in [2] is more than 100 µM; in test [3] it was more than 100 µM; in [4], more than 100 µM; in test [6] it was 63.1 µM; in test [7] it was more than 100 µM; in test [10], more than 100 µM. Besides, the TGI in test [8] and in test [9] was more than 100 µM in each case.
As to `Cc1cc(C(=O)CCCCOc2ccc(C3=NCCO3)cc2)c(C)n1C`, the TGI in [1], in test [2], in test [3], in test [4], in [5] and in test [6] was more than 100 µM each time. The TGI in test [10], in test [8] and in test [9] was more than 100 µM in each case.
Take `[O-][n+]1ccccc1Sc1nc(Sc2cccc[n+]2[O-])nc(Sc2cccc[n+]2[O-])n1`: the TGI in test [1] stood at 4.96 µM; in test [2], 9.17 µM; in test [3] it was 10.9 µM; in test [4], 2.61 µM; in test [5], 2.73 µM; in test [6] it was 3.87 µM. The figures for the TGI in test [7], in test [10] and in test [9] were 4.22 µM, 4.74 µM and 6.23 µM, respectively.
On to `CCCCC(C(=O)NCCNC(=O)CCC(=O)N(C)O)C(=O)NCCNC(=O)CCC(=O)N(C)O`, for which the TGI in test [1], in test [2], in test [4], in test [5], in test [6] and in test [7] was more than 100 µM throughout. The TGI in test [10], in [8] and in test [9] was more than 100 µM each time.
Turning to `CN(C)C1(N(C)C)Oc2c(c(=O)n(C)c(=O)n2C)C(c2ccc(Br)cc2)C1(F)F` (stereo unspecified), the TGI in [1], in [2], in [5], in [6], in [7] and in test [10] was more than 100 µM throughout. Also, the TGI in [8] and in test [9] was more than 100 µM throughout.
`CSc1nsc(-c2ccccc2)[s+]1`: the TGI in test [2], in test [7], in [10], in [8] and in test [9] was more than 100 µM each time.
